The values below come from publication PMC8859269, “Lichenysin Production by Bacillus licheniformis Food Isolates and Toxicity to Human Cells” (Frontiers in Microbiology, 2022).

One data set deals with pig ileum organoids. Description: alamarBlue cytotoxicity assay, pig ileum organoids. Format: cell-based. To be noted: 200 μM, 72 h. The method, then: (§1) To perform cytotoxicity assay, two batches of concentrated lichenysin were prepared from biomass grown on LB agar plates as described in section “Extraction of Lichenysin From Biomass Collected From Surface Growth on LB Agar and Skimmed Milk Agar.” Instead of using 150 mg biomass, lichenysin was extracted from 6.5 g of biomass from strain B4123, and dissolved in a final volume of 300 μl methanol. A small aliquot of 1 μl was taken to determine the concentration of the concentrated lichenysin extract via Reversed-Phase High-Performance Liquid Chromatography – Electro Spray Ionization Mass Spectrometry (RP-HPLC-ESI-MS). […]
(§2) The alamarBlue (Thermo Fischer Scientific) fluorometric assay was used to examine the cytotoxicity of lichenysin and surfactin toward two human cell lineages (HEK293, Caco-2) and ileum organoids from pigs. Culturing medium DMEM with Alamar blue (i.e., a no-cells control) and cells exposed to 10% DMSO were used to correct for background fluorescence and cell death, respectively. […]
(§3) The alamarBlue assay was performed as described in [Burczynski et al. (2000)], [Hamid et al. (2004)], and [Rampersad (2012)]. […] The fluorescence at the emission wavelength of 590 nm was measured with a SpectraMax M5 (Molecular Devices, San Jose, CA, United States) and expressed as relative fluorescence units. […]
(§4) The cell viability (%) was calculated by using the formula: […]

Data set [1] can be described thus: alamarBlue cytotoxicity assay, pig ileum organoids. Format: cell-based. To be noted: 72 h exposure, alamarBlue, read-out: IC50 (cytotoxic level). The procedure: as §1, §2, §3, §4
Data set [2] deals with Human Embryonic Kidney (HEK293) cells. Nature of the data set: alamarBlue cytotoxicity assay, HEK293 cells. Format: cell-based. To be noted: HEK293, 200 μM (∼200 μg/ml), exposure for 72 h. The method, then: as §1, §2, §3, §4
The nature of data set [3]: alamarBlue cytotoxicity assay, HEK293 cells. To be noted: human; HEK293, 72 h exposure, alamarBlue; read-out: IC50 (cytotoxic level). In kind it is cell-based, human. The method, then: as §1, §2, §3, §4
For data set [4], the system named is Caco-2 human intestinal epithelial cells. Description: alamarBlue cytotoxicity assay, Caco-2 cells. In kind it is cell-based. To be noted: Homo sapiens, Caco-2, 72 h. The method, then:
(§5) To perform cytotoxicity assay, two batches of concentrated lichenysin were prepared from biomass grown on LB agar plates as described in section “Extraction of Lichenysin From Biomass Collected From Surface Growth on LB Agar and Skimmed Milk Agar.” Instead of using 150 mg biomass, lichenysin was extracted from 6.5 g of biomass from strain B4123, and dissolved in a final volume of 300 μl methanol. A small aliquot of 1 μl was taken to determine the concentration of the concentrated lichenysin extract via Reversed-Phase High-Performance Liquid Chromatography – Electro Spray Ionization Mass Spectrometry (RP-HPLC-ESI-MS). The remaining concentrated extract was entirely evaporated under a flow of nitrogen at 40°C in a heating block. The dry residue was resuspended in either 99% Dimethyl Sulfoxide (DMSO) or Dulbecco’s Modified Eagle Medium (DMEM; Gibco, Thermo Fischer Scientific, Bleiswijk, Netherlands) without phenol red serum or antibiotics. Surfactin (purchased from Merck) was also used in cytotoxicity assays by dissolving 10 mg in 1 ml of distilled water (10 mM) (with an adjusted pH of ∼11.7 to obtain full solubility). Both lichenysin and surfactin were diluted to the desired concentration in DMEM medium without phenol red, serum and antibiotics before adding to the cells.
(§6) Human Embryonic Kidney (HEK293) cells were obtained from Invivogen (San Diego, CA, United States), and Caco-2 human intestinal epithelial cells (ATCC HTB-37) were purchased from the American Type Culture Collection (Manassas, VA, United States). Both cell lines were maintained in DMEM medium containing 10 % Fetal Bovine Serum (FBS) (Thermo Fischer Scientific) and 1 % penicillin/streptomycin (Merck) to attain a confluent growth. The grown HEK293 and Caco-2 cells were seeded and suspended at a final concentration of 2 × 10^5 cells/ml (in 200 μl) in 96 wells-plates (Greiner). […]
as §2
(§7) The alamarBlue assay was performed as described in [Burczynski et al. (2000)], [Hamid et al. (2004)], and [Rampersad (2012)]. […] The fluorescence at the emission wavelength of 590 nm was measured with a SpectraMax M5 (Molecular Devices, San Jose, CA, United States) and expressed as relative fluorescence units. The average fluorescence of the no-cells control was used to normalize all recorded fluorescence emission values.
as §4

Data set [5] can be described thus: alamarBlue cytotoxicity assay, Caco-2 cells. Format: cell-based, human. To be noted: human, Caco-2, 72 h exposure, alamarBlue; read-out: IC50 (cytotoxic level). The method, then:
as §5, §6, §2, §7, §4

In brackets after ≈: the same amount, converted by molar mass. Entries after “also recorded” stand apart in the source; their conditions may differ. Like-named read-outs stand apart in the source and are kept apart here. Numbered stars: 1 amine (or outer) side, 2 acyl side, 3 side chain; on linkers, the order of the positions; unused ones are H or OH. Bridge positions count the residues as written; N and C are the ends. Square brackets hold non-standard residues; d marks the D form. Peptide text beside a SMILES is read from it. X2 = CC(C)CCCCCCCCC[C@H](CC(=O)[*:1])O[*:2]

Turning to `CC(C)CCCCCCCCC[C@@H]1CC(=O)N[C@@H](CCC(=O)O)C(=O)N[C@@H](CC(C)C)C(=O)N[C@H](CC(C)C)C(=O)N[C@@H](C(C)C)C(=O)N[C@@H](CC(=O)O)C(=O)N[C@H](CC(C)C)C(=O)N[C@@H](CC(C)C)C(=O)O1` [Surfactin, cyclo-[Glu^1-Leu^2-Leu^3-Val^4-Asp^5-Leu^6-Leu^7 − − β-OH fatty acid]] (EL[dL]VD[dL]L; linker N-C via X2), the “toxicity at the highest tested concentration” value is recorded as “did not show toxicity; also recorded: no toxicity was seen” in the data set with pig ileum organoids and “not toxic” in data set [2]. For the same compound, the IC50 is over 200 µg/mL in data set [1]; over 200 µg/mL in data set [3]; 23.4 µg/mL in data set [4] (Caco-2, 72 h incubation, read-out: concentration needed to reduce cell viability by 50% (IC50)); 1.37 µM in data set [4] (in log10 scale, read-out: IC50 in log10 scale (converted)); 23.5 µM in data set [4] (read-out: IC50); 23.5 µg/mL (≈ 22.7 µM) in data set [5].
